One block for each compound: values may come before it.
Key:
[1] = target: T1, Serine/threonine-protein kinase TAO3 (Homo sapiens) (UniProt Q9H2K8); assay: Inhibition of human recombinant TAO3 at 500 nM in presence of ATP by radiometric assay relative to control
T1 sequence (whole entry): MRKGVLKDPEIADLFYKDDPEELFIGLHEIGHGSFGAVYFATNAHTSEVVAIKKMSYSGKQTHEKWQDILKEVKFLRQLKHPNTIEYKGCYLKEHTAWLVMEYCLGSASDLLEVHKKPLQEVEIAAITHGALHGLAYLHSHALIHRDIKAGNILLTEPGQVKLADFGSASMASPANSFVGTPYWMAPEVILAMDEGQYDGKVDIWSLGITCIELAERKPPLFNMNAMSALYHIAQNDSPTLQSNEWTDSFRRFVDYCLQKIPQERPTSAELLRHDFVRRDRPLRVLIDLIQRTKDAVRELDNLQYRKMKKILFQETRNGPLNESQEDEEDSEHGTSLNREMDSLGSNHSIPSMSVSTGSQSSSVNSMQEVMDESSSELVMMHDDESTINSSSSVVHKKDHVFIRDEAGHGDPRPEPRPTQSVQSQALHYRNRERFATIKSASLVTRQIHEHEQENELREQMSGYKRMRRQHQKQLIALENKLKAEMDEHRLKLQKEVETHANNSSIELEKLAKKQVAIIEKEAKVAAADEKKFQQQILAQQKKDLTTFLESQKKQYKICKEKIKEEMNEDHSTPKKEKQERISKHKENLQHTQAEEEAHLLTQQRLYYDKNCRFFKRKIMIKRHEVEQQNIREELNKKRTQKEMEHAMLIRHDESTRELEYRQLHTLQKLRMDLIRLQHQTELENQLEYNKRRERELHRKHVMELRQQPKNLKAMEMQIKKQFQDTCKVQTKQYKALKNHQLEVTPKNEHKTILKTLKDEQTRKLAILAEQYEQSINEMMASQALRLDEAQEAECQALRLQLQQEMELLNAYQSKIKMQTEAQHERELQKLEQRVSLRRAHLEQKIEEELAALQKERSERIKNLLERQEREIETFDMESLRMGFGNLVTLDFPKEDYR

[2] = target: Calcium/calmodulin-dependent protein kinase type 1G (Homo sapiens) (UniProt Q96NX5); assay: Inhibition of human recombinant CaMK1g at 500 nM in presence of ATP by radiometric assay relative to control
[3] = target: 3-phosphoinositide-dependent protein kinase 1 (Homo sapiens) (UniProt O15530); assay: Inhibition of human recombinant PDK1 at 500 nM in presence of ATP by radiometric assay relative to control
[4] = target: T2, Mitogen-activated protein kinase kinase kinase 3 (Homo sapiens) (UniProt Q99759); assay: Inhibition of human recombinant MAP3K3 at 15 nM related to control ULK1
T2 sequence (whole entry): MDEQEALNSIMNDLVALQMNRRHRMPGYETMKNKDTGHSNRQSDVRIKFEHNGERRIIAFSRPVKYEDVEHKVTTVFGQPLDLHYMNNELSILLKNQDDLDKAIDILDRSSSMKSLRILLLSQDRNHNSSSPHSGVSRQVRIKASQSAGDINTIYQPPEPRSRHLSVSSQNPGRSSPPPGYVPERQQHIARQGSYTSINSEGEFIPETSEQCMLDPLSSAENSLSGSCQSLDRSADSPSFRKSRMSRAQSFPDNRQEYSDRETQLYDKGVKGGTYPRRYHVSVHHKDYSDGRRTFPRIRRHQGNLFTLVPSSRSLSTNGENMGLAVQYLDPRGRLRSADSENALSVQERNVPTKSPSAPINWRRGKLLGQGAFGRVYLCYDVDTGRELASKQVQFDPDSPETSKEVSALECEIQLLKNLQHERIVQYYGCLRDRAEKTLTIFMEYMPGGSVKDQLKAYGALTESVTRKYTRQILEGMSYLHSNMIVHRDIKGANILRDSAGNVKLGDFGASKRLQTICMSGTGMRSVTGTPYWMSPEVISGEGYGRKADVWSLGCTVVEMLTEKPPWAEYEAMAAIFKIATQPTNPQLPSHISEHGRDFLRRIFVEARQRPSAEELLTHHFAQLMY

[5] = target: T3, Homeodomain-interacting protein kinase 4 (Homo sapiens) (UniProt Q8NE63); assay: Inhibition of human recombinant HIPK4 at 15 nM related to control ULK1
T3 sequence (whole entry): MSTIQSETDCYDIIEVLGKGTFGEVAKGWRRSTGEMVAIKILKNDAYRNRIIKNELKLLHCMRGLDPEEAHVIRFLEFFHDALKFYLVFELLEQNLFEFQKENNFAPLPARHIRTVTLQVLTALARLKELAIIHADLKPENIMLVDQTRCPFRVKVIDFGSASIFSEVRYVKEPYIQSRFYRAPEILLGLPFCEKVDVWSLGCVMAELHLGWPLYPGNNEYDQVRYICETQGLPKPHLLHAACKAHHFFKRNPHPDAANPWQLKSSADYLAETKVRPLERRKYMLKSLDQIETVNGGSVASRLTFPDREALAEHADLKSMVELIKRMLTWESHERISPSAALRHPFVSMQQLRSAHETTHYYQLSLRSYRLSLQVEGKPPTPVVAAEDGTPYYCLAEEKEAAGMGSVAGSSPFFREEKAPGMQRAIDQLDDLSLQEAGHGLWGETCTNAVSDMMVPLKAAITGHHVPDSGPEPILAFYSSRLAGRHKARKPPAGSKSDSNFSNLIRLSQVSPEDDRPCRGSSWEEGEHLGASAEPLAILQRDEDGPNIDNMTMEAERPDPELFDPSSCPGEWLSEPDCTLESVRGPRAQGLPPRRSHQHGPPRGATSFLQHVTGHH

[6] = target: Ephrin type-A receptor 5 (Homo sapiens) (UniProt P54756); assay: Inhibition of human recombinant EphA5 at 40 nM in presence of ATP by radiometric assay relative to control
[7] = target: T4, Tribbles homolog 2 (Homo sapiens) (UniProt Q92519); assay: Inhibition of human recombinant Trb2 at 40 nM in presence of ATP by radiometric assay relative to control
T4 sequence (whole entry): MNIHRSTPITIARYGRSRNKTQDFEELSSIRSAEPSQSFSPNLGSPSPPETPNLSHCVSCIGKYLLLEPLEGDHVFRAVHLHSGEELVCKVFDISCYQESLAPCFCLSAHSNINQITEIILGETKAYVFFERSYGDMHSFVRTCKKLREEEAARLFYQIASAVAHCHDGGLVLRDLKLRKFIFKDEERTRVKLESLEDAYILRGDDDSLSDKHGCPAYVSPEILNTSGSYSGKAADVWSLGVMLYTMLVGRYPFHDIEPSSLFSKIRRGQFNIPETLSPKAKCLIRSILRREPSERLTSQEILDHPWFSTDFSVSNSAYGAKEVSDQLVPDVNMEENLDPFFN

[8] = target: Dual specificity tyrosine-phosphorylation-regulated kinase 1B (Homo sapiens) (UniProt Q9Y463); assay: Inhibition of human recombinant DYRK1B at 40 nM in presence of ATP by radiometric assay relative to control
Chain of Dual specificity tyrosine-phosphorylation-regulated kinase 1B (Homo sapiens) (Q9Y463 whole entry, looked up): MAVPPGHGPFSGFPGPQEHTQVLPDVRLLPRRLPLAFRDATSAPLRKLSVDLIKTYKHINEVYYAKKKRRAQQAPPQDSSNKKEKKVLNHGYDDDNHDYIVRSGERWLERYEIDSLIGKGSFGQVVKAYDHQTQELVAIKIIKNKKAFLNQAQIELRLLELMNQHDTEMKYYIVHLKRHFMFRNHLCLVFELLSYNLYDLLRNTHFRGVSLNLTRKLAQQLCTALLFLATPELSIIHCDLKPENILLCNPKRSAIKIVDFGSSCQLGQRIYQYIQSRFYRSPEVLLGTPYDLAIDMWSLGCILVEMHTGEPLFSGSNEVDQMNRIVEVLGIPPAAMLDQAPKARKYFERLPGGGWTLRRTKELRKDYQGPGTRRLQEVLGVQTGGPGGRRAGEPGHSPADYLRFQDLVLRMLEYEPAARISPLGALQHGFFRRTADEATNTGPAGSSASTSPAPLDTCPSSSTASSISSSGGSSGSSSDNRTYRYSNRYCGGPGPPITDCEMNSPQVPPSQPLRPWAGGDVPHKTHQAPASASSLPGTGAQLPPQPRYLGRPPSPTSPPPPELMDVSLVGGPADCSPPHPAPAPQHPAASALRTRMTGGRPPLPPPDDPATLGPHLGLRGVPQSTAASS

Chain of Ephrin type-A receptor 5 (Homo sapiens) (P54756 whole entry): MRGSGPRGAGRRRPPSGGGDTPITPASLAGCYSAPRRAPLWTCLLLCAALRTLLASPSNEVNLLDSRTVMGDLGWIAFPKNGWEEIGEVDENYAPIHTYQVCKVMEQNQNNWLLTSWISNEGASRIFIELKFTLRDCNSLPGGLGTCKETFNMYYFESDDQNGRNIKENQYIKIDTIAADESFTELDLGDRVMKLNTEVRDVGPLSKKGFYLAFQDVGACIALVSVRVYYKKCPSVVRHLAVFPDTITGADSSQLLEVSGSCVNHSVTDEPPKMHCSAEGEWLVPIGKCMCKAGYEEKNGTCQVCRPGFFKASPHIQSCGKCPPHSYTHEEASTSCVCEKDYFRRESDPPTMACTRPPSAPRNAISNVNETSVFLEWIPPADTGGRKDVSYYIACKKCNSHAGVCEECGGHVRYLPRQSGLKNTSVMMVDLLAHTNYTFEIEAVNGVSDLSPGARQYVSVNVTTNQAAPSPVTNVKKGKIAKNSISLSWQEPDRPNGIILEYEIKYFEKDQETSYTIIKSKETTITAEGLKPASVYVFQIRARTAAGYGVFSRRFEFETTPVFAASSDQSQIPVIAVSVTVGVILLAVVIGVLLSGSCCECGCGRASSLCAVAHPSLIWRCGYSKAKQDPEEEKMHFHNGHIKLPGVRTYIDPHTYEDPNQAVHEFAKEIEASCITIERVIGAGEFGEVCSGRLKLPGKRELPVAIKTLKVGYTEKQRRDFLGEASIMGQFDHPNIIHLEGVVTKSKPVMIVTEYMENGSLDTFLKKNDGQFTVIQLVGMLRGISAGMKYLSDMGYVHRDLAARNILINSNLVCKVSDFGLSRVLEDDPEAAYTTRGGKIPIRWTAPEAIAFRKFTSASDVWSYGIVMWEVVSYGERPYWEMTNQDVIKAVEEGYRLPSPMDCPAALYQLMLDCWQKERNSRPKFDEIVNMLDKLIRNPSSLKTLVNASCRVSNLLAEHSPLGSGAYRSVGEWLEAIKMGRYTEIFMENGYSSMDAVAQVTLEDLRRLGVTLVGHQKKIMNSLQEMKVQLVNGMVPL
Chain of Calcium/calmodulin-dependent protein kinase type 1G (Homo sapiens) (Q96NX5 whole entry): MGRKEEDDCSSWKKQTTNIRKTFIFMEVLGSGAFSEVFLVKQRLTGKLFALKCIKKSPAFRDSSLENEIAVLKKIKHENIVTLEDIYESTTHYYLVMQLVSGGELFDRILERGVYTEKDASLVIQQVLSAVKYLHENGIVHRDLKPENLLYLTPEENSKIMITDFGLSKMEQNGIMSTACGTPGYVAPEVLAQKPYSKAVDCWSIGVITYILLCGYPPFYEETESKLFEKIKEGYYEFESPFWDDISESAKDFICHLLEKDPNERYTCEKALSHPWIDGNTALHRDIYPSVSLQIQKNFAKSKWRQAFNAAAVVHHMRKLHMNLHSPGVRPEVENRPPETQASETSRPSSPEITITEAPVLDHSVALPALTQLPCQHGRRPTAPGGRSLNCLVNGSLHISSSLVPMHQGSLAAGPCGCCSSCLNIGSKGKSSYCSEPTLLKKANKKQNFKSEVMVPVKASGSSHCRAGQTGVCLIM
Chain of 3-phosphoinositide-dependent protein kinase 1 (Homo sapiens) (O15530 whole entry, looked up): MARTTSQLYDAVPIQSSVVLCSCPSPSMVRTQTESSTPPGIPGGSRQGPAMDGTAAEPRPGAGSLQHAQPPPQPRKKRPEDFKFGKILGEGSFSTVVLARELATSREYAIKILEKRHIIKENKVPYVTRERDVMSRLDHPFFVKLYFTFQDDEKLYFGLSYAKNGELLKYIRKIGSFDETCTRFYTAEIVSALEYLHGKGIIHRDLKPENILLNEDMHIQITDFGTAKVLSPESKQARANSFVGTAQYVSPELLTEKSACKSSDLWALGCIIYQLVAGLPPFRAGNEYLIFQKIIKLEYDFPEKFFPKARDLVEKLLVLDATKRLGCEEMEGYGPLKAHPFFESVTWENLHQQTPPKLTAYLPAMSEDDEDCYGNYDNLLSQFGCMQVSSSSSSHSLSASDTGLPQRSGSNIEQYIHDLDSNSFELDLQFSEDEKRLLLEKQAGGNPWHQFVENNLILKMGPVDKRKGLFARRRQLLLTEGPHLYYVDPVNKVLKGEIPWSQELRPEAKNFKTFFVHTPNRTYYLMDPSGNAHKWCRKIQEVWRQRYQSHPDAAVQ

- inhibition [1]: 0%
- inhibition [2]: 6%
- inhibition [3]: 4%
SMILES: CNC(=O)c1ccccc1Oc1nc(Nc2cc(OC)c(OC)c(OC)c2)ncc1Br

- fold change (FC) [4]: 0.03
- fold change (FC) [5]: 0
SMILES: CC(C)[C@H](NC(=O)c1cc(-c2cnn3cc(-c4ccc(OCCN5CCCCC5)cc4)cnc23)cs1)C(F)(F)F

- inhibition [6]: 0%
- inhibition [7]: 34%
- inhibition [8]: 31%
SMILES: O=C(N[C@@H](C1CC1)C(F)(F)F)c1cc(-c2cnn3cc(-c4ccc(F)cc4)cnc23)cs1

Reference: ChEMBL document CHEMBL5653631, “A Potent and Selective ULK1 Inhibitor Suppresses Autophagy and Sensitizes Cancer Cells to Nutrient Stress” (iScience, 2018)
